Experimental data from patent US10617693B2, “Methods of treating and/or preventing actinic keratosis” (Athenex, Inc., priority 2017, dated 2020).

Test system: skin of forearm or forehead of AK patients
Experiment: Comparison of skin reactions, photographs (FIGS. 3A-4B)
Type: in vivo, human
Description: The comparison in FIGS. 3A, 3B, 4A, and 4B illustrates the lack of skin toxicity observed in the treatment of AK with topically administered KX-01 compared to the approved therapy for AK.

O=C(Cc1ccc(-c2ccc(OCCN3CCOCC3)cc2)cn1)NCc1ccccc1 [KX-01]
Skin reaction in the forearm (day 3 and day 5 of treatment): minimal or no adverse skin reactions | Skin reaction in the forehead (day 8 and day 57, subject with 100% response): minimal or no adverse skin reactions | Skin reactions compared with Picato (in vivo): fewer and less severe skin reactions | Efficacy for clearing AK lesions compared with Picato (initial data of Examples 1, 2a, 2b): may be similar
